Reference: ChEMBL document CHEMBL3352227, “Synthesis, antimycobacterial and antibacterial evaluation of l-[(1R, 2S)-2-fluorocyclopropyl]fluoroquinolone derivatives containing an oxime functional moiety” (Eur J Med Chem, 2014)
≈ marks a conversion by molar mass, not a printed value.

Tests used:
Type in all cases: functional
[1] = test system: Staphylococcus epidermidis; assay: Antibacterial activity against methicillin-sensitive Staphylococcus epidermidis 12-8 after 18 to 24 hrs by standard twofold serial dilution method
[2] = test system: Staphylococcus epidermidis; assay: Antibacterial activity against methicillin-sensitive Staphylococcus epidermidis 12-3 after 18 to 24 hrs by standard twofold serial dilution method
[3] = test system: Staphylococcus epidermidis; assay: Antibacterial activity against methicillin-resistant Staphylococcus epidermidis 12-1 after 18 to 24 hrs by standard twofold serial dilution method
Klebsiella pneumoniae [4] = assay: Antibacterial activity against extended-spectrum beta-lactamase producin Klebsiella pneumoniae 12-3 after 18 to 24 hrs by standard twofold serial dilution method
[5] = test system: Staphylococcus epidermidis; assay: Antibacterial activity against methicillin-sensitive Staphylococcus epidermidis 12-6 after 18 to 24 hrs by standard twofold serial dilution method
Klebsiella pneumoniae [6] = assay: Antibacterial activity against extended-spectrum beta-lactamase producin Klebsiella pneumoniae 12-4 after 18 to 24 hrs by standard twofold serial dilution method
Escherichia coli [7] = assay: Antibacterial activity against extended-spectrum beta-lactamase producing Escherichia coli 12-3 after 18 to 24 hrs by standard twofold serial dilution method
Escherichia coli [8] = assay: Antibacterial activity against Escherichia coli ATCC 25922 after 18 to 24 hrs by standard twofold serial dilution method
Klebsiella pneumoniae [9] = assay: Antibacterial activity against Klebsiella pneumoniae 12-1 after 18 to 24 hrs by standard twofold serial dilution method
Staphylococcus aureus [10] = assay: Antibacterial activity against Staphylococcus aureus ATCC 25923 after 18 to 24 hrs by standard twofold serial dilution method
Staphylococcus aureus [11] = assay: Antibacterial activity against methicillin-sensitive Staphylococcus aureus 12-5 after 18 to 24 hrs by standard twofold serial dilution method
Streptococcus pneumoniae [12] = assay: Antibacterial activity against Streptococcus pneumoniae ATCC 49619 after 18 to 24 hrs by standard twofold serial dilution method
[13] = test system: Staphylococcus epidermidis; assay: Antibacterial activity against methicillin-sensitive Staphylococcus epidermidis 12-1 after 18 to 24 hrs by standard twofold serial dilution method
Escherichia coli [14] = assay: Antibacterial activity against extended-spectrum beta-lactamase producing Escherichia coli 12-15 after 18 to 24 hrs by standard twofold serial dilution method
Klebsiella pneumoniae [15] = assay: Antibacterial activity against Klebsiella pneumoniae 12-4 after 18 to 24 hrs by standard twofold serial dilution method
Streptococcus pneumoniae [16] = assay: Antibacterial activity against Streptococcus pneumoniae 12-18 after 18 to 24 hrs by standard twofold serial dilution method
Escherichia coli [17] = assay: Antibacterial activity against extended-spectrum beta-lactamase producing Escherichia coli 12-14 after 18 to 24 hrs by standard twofold serial dilution method
Pseudomonas aeruginosa [18] = assay: Antibacterial activity against Pseudomonas aeruginosa 12-12 after 18 to 24 hrs by standard twofold serial dilution method
Pseudomonas aeruginosa [19] = assay: Antibacterial activity against Pseudomonas aeruginosa 12-14 after 18 to 24 hrs by standard twofold serial dilution method
Klebsiella pneumoniae [20] = assay: Antibacterial activity against Klebsiella pneumoniae 12-2 after 18 to 24 hrs by standard twofold serial dilution method
Escherichia coli [21] = assay: Antibacterial activity against extended-spectrum beta-lactamase producing Escherichia coli 12-2 after 18 to 24 hrs by standard twofold serial dilution method
Staphylococcus aureus [22] = assay: Antibacterial activity against methicillin-resistant Staphylococcus aureus 12-5 after 18 to 24 hrs by standard twofold serial dilution method
Staphylococcus aureus [23] = assay: Antibacterial activity against methicillin-sensitive Staphylococcus aureus 12-4 after 18 to 24 hrs by standard twofold serial dilution method
Staphylococcus aureus [24] = assay: Antibacterial activity against methicillin-resistant Staphylococcus aureus 12-2 after 18 to 24 hrs by standard twofold serial dilution method
[25] = test system: Staphylococcus epidermidis; assay: Antibacterial activity against methicillin-resistant Staphylococcus epidermidis 12-6 after 18 to 24 hrs by standard twofold serial dilution method
Escherichia coli [26] = assay: Antibacterial activity against Escherichia coli 12-1 after 18 to 24 hrs by standard twofold serial dilution method
Klebsiella pneumoniae [27] = assay: Antibacterial activity against extended-spectrum beta-lactamase producin Klebsiella pneumoniae 12-14 after 18 to 24 hrs by standard twofold serial dilution method
Klebsiella pneumoniae [28] = assay: Antibacterial activity against extended-spectrum beta-lactamase producin Klebsiella pneumoniae 12-7 after 18 to 24 hrs by standard twofold serial dilution method
Staphylococcus aureus [29] = assay: Antibacterial activity against methicillin-sensitive Staphylococcus aureus 12-2 after 18 to 24 hrs by standard twofold serial dilution method
[30] = test system: Mycobacterium tuberculosis; assay: Antimycobacterial activity against Mycobacterium tuberculosis H37Rv ATCC 27294 by MABA method
Staphylococcus aureus [31] = assay: Antibacterial activity against methicillin-resistant Staphylococcus aureus 12-4 after 18 to 24 hrs by standard twofold serial dilution method
Staphylococcus aureus [32] = assay: Antibacterial activity against methicillin-sensitive Staphylococcus aureus 12-1 after 18 to 24 hrs by standard twofold serial dilution method

Row | Compound | MIC [1] [µg/mL] | MIC [2] [µg/mL] | MIC [3] [µg/mL] | MIC (Klebsiella pneumoniae [4]) [µg/mL] | MIC [5] [µg/mL] | MIC (Klebsiella pneumoniae [6]) [µg/mL] | MIC (Escherichia coli [7]) [µg/mL] | MIC (Escherichia coli [8]) [µg/mL] | MIC (Klebsiella pneumoniae [9]) [µg/mL] | MIC (Staphylococcus aureus [10]) [µg/mL] | MIC (Staphylococcus aureus [11]) [µg/mL] | MIC (Streptococcus pneumoniae [12]) [µg/mL] | MIC [13] [µg/mL] | MIC (Escherichia coli [14]) [µg/mL] | MIC (Klebsiella pneumoniae [15]) [µg/mL] | MIC (Streptococcus pneumoniae [16]) [µg/mL] | MIC (Escherichia coli [17]) [µg/mL] | MIC (Pseudomonas aeruginosa [18]) [µg/mL] | MIC (Pseudomonas aeruginosa [19]) [µg/mL] | MIC (Klebsiella pneumoniae [20]) [µg/mL] | also measured
1 | NCC1CN(c2cc3c(cc2F)c(=O)c(C(=O)O)cn3[C@@H]2C[C@@H]2F)C/C1=N/OCc1ccccc1 (some centres undefined) | 0.125 (≈ 0.259 µM) | 0.125 (≈ 0.259 µM) | 1 (≈ 2.07 µM) | 16 (≈ 33.2 µM) | 0.06 (≈ 0.124 µM) | 16 (≈ 33.2 µM) | 32 (≈ 66.3 µM) | 0.06 (≈ 0.124 µM) | 0.06 (≈ 0.124 µM) | < 0.008 | 0.06 (≈ 0.124 µM) | 0.06 (≈ 0.124 µM) | 0.125 (≈ 0.259 µM) | 64 (≈ 133 µM) | 0.25 (≈ 0.518 µM) | 0.25 (≈ 0.518 µM) | 16 (≈ 33.2 µM) | 1 (≈ 2.07 µM) | 1 (≈ 2.07 µM) | 0.25 (≈ 0.518 µM) | MIC (Escherichia coli [21]): 64 µg/mL (≈ 133 µM); MIC (Staphylococcus aureus [22]): 4 µg/mL (≈ 8.29 µM); MIC (Staphylococcus aureus [23]): 0.06 µg/mL (≈ 0.124 µM); MIC (Staphylococcus aureus [24]): 4 µg/mL (≈ 8.29 µM); MIC [25]: 0.5 µg/mL (≈ 1.04 µM); MIC (Escherichia coli [26]): 0.06 µg/mL (≈ 0.124 µM); MIC (Klebsiella pneumoniae [27]): 64 µg/mL (≈ 133 µM); MIC (Klebsiella pneumoniae [28]): 16 µg/mL (≈ 33.2 µM); MIC (Staphylococcus aureus [29]): < 0.008 µg/mL; MIC [30]: 0.25 µg/mL (≈ 0.518 µM); MIC (Staphylococcus aureus [31]): 8 µg/mL (≈ 16.6 µM); MIC (Staphylococcus aureus [32]): 0.06 µg/mL (≈ 0.124 µM)
2 | CO/N=C1/CN(c2cc3c(cc2F)c(=O)c(C(=O)O)cn3[C@@H]2C[C@@H]2F)[C@H]1CN | 0.125 (≈ 0.319 µM) | 0.25 (≈ 0.637 µM) | 8 (≈ 20.4 µM) | 64 (≈ 163 µM) | 0.25 (≈ 0.637 µM) | 8 (≈ 20.4 µM) | 16 (≈ 40.8 µM) | < 0.008 | 0.125 (≈ 0.319 µM) | 0.06 (≈ 0.153 µM) | 0.5 (≈ 1.27 µM) | 0.125 (≈ 0.319 µM) | 0.25 (≈ 0.637 µM) | > 128 | 0.015 (≈ 0.0382 µM) | 0.5 (≈ 1.27 µM) | 64 (≈ 163 µM) | 0.25 (≈ 0.637 µM) | 32 (≈ 81.6 µM) | 0.125 (≈ 0.319 µM) | MIC (Escherichia coli [21]): 128 µg/mL (≈ 326 µM); MIC (Staphylococcus aureus [22]): 32 µg/mL (≈ 81.6 µM); MIC (Staphylococcus aureus [23]): 0.25 µg/mL (≈ 0.637 µM); MIC (Staphylococcus aureus [24]): 32 µg/mL (≈ 81.6 µM); MIC [25]: 4 µg/mL (≈ 10.2 µM); MIC (Escherichia coli [26]): 1 µg/mL (≈ 2.55 µM); MIC (Klebsiella pneumoniae [27]): 64 µg/mL (≈ 163 µM); MIC (Klebsiella pneumoniae [28]): 0.5 µg/mL (≈ 1.27 µM); MIC (Staphylococcus aureus [29]): 0.5 µg/mL (≈ 1.27 µM); MIC [30]: 0.5 µg/mL (≈ 1.27 µM); MIC (Staphylococcus aureus [31]): 64 µg/mL (≈ 163 µM); MIC (Staphylococcus aureus [32]): 0.5 µg/mL (≈ 1.27 µM)
